The values below come from patent US9156845B2, “4-(substituted amino)-7H-pyrrolo[2,3-d] pyrimidines as LRRK2 inhibitors” (Pfizer Inc., priority 2012, dated 2015).

For assay [1], the target named is mutant G2019S LRRK2 (Homo sapiens (Human), UniProt Q5S007, G2019S). The assay can be described thus: LRRK2 Lantha Screen kinase assay, mutant enzyme. The conditions noted are these: geometric mean of 2-5 determinations unless otherwise indicated (a: >=6 determinations; b: single determination). It counts as biochemical.
Protocol: LRRK2 kinase activity was measured using Lantha Screen technology from Invitrogen. GST-tagged truncated LRRK2 from Invitrogen (Cat # PV4874) was incubated with a fluorescein-labeled peptide substrate based upon ezrin/radixin/moesin (ERM), also known as LRRKtide (Invitrogen cat #PR8976A), in the presence of a dose response of compound. Upon completion, the assay was stopped and detected with a terbium labeled anti-phospho-ERM antibody (Invitrogen, cat #PR8975A). […] Aliquots (3.5 μL) of the 100% DMSO dose response were mixed with 46.5 μL water then 1 μL of this mixture was added to the 3 μL substrate mix in the 384-well plate. The kinase reaction was started with 3 μL of a working solution of LRRK2 enzyme at a concentration of 4 μg/mL. […] The reaction was allowed to progress at room temperature for two hours and then stopped with the addition of 7 μL of detection buffer (20 mM Tris pH 7.6, 0.01% NP-40, 0.02% NaN3, 6 mM EDTA with 2 nM terbium labeled anti-phospho-ERM).
All final concentrations of substrate ATP and enzyme were the same.
The target of assay [2] is GST-tagged truncated LRRK2 (Homo sapiens (Human), UniProt Q5S007). The assay can be described thus: LRRK2 Lantha Screen kinase assay. The settings on record: geometric mean of 2-5 determinations unless otherwise indicated (a: >=6 determinations; b: single determination); read-out: LRRK2 WT IC50. In kind it is biochemical.
GST-tagged truncated LRRK2, sequence (Q5S007 970-2527): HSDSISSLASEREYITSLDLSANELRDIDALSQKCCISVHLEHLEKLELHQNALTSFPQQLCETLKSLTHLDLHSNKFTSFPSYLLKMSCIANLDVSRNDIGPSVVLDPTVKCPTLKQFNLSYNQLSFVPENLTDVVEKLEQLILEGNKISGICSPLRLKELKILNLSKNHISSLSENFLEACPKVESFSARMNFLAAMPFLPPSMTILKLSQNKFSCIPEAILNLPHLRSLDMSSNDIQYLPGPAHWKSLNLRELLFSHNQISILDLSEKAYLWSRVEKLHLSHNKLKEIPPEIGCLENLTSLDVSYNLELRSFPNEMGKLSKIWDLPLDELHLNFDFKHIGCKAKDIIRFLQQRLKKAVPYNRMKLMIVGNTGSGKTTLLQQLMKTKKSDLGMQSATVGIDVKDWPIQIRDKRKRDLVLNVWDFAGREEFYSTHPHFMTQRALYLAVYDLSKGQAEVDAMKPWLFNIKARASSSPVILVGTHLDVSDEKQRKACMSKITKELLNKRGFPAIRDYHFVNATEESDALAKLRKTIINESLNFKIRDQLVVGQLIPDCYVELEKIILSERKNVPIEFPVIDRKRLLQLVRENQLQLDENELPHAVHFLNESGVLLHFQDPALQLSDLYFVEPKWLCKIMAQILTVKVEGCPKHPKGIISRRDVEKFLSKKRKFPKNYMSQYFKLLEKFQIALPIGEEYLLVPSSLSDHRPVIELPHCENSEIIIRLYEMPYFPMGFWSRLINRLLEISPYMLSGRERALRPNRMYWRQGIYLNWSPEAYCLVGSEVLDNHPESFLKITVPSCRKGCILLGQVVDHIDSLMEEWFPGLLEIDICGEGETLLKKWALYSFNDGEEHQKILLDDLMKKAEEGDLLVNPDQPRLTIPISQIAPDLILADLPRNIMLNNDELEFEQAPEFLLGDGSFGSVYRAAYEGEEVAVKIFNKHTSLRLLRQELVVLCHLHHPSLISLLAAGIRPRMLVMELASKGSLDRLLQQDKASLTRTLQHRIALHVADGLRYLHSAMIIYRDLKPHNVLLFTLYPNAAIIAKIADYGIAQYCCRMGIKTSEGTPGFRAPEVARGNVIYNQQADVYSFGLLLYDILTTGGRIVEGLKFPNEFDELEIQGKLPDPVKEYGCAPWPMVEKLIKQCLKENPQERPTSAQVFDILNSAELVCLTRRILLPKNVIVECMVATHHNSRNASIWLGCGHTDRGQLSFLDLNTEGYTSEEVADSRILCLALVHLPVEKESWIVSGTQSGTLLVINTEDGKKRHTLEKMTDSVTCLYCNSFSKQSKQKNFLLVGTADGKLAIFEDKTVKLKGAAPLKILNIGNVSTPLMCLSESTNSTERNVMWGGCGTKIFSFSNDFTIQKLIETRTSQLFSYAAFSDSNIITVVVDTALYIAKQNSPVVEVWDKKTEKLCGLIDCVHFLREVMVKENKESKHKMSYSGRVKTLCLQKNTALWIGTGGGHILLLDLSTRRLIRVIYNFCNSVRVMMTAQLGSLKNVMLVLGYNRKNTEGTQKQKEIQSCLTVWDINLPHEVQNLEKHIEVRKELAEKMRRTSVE

mutant G2019S LRRK2, sequence (Q5S007 970-2527 G2019S): as the sequence (Q5S007 970-2527) above, with G1050S counted along it

Consider `COCC1CN(c2ncnc3[nH]cc(-c4cccc(C#N)c4F)c23)CCO1` (stereo not shown) [Example 167, 2-fluoro-3-{4-[2-(methoxymethyl)morpholin-4-yl]-7H-pyrrolo[2,3-d]pyrimidin-5-yl}benzonitrile], for which the IC50 came to 0.372 µM in assay [1] and 0.061 µM in assay [2].

Take `COc1ccc(F)cc1-c1c[nH]c2ncnc(N3CCC3)c12` [Example 168, 4-(azetidin-1-yl)-5-(5-fluoro-2-methoxyphenyl)-7H-pyrrolo[2,3-d]pyrimidine]: the IC50 was determined as 0.075 µM in assay [1] and 0.085 µM in assay [2].

For the compound `Cc1cncc(-c2c[nH]c3ncnc(N4CCO[C@@H](C)C4)c23)c1` [Example 169, 4-[(2S)-2-methylmorpholin-4-yl]-5-(5-methylpyridin-3-yl)-7H-pyrrolo[2,3-d]pyrimidin], the IC50 in assay [1] was 0.28 µM; in assay [2], 0.099 µM.

As for `COc1ccccc1-c1c[nH]c2ncnc(N(C)C)c12` [Example 173, 5-(2-methoxyphenyl)-N,N-dimethyl-7H-pyrrolo[2,3-d]pyrimidin-4-amine], the IC50 in assay [1] came to 0.029 µM; in assay [2] it was 0.043 µM.

In the case of `COc1ccccc1-c1c[nH]c2ncnc(N3CC[C@H](F)C3)c12` [Example 175, 4-[(3S)-3-fluoropyrrolidin-1-yl]-5-(2-methoxyphenyl)-7H-pyrrolo[2,3-d]pyrimidine], the values for the IC50 in assay [1] and in assay [2] were 0.054 µM and 0.041 µM, respectively.

Turning to `COc1ccccc1-c1c[nH]c2ncnc(N3CCCC3)c12` [Example 176, 5-(2-methoxyphenyl)-4-(pyrrolidin-1-yl)-7H-pyrrolo[2,3-d]pyrimidine], the IC50 in assay [1] stood at 0.068 µM; in assay [2], 0.054 µM.

For the compound `COc1cc(F)cc(-c2c[nH]c3ncnc(N(C)C)c23)c1` [Example 177, 5-(3-fluoro-5-methoxyphenyl)-N,N-dimethyl-7H-pyrrolo[2,3-d]pyrimidin-4-amine], the IC50 is 0.049 µM in assay [1] and 0.041 µM in assay [2].

As for `N#Cc1cccc(-c2c[nH]c3ncnc(N4CCCC(O)C4)c23)c1F` (stereo not shown) [Example 178, 2-fluoro-3-[4-(3-hydroxypiperidin-1-yl)-7H-pyrrolo[2,3-d]pyrimidin-5-yl]benzonitrile], the IC50 in assay [1] came to 0.042 µM; in assay [2] it was 0.009 µM.

Take `COc1ccc(F)cc1-c1c[nH]c2ncnc(N3CCO[C@@H](C)C3)c12` [Example 179, 5-(5-fluoro-2-methoxyphenyl)-4-[(2S)-2-methylmorpholin-4-yl]-7H-pyrrolo[2,3-d]pyrimidine]: the concentration for half-maximal inhibition (IC50) in assay [1] stood at 0.03 µM; in assay [2] it was 0.019 µM.

As for `C[C@H]1CN(c2ncnc3[nH]cc(-c4cccc(C#N)c4F)c23)CCO1` [Example 180, 2-fluoro-3-{4-[(2S)-2-methylmorpholin-4-yl]-7H-pyrrolo[2,3-d]pyrimidin-5-yl}benzonitrile], the IC50 in assay [1] was 0.062 µM; in assay [2], 0.01 µM.

On to `COc1ccc(F)cc1-c1c[nH]c2ncnc(N3CCCC(F)C3)c12` (stereo not shown) [Example 181, 5-(5-fluoro-2-methoxyphenyl)-4-(3-fluoropiperidin-1-yl)-7H-pyrrolo[2,3-d]pyrimidine], for which the IC50 is 0.024 µM in assay [1] and 0.022 µM in assay [2].

With `C[C@H]1CN(c2ncnc3[nH]cc(-c4cccc(F)c4)c23)CCO1` [Example 182, 5-(3-fluorophenyl)-4-[(2S)-2-methylmorpholin-4-yl]-7H-pyrrolo[2,3-d]pyrimidine], the IC50 in assay [1] worked out at 0.082 µM; in assay [2] it was 0.038 µM.

Take `COc1ccc(F)cc1-c1c[nH]c2ncnc(N(C)C)c12` [Example 183, 5-(5-fluoro-2-methoxyphenyl)-N,N-dimethyl-7H-pyrrolo[2,3-d]pyrimidin-4-amine]: the figures for the IC50 in assay [1] and in assay [2] were 0.011 µM and 0.013 µM, respectively.

Consider `N#Cc1cccc(-c2c[nH]c3ncnc(N4CCCC4)c23)c1F` [Example 184, 2-fluoro-3-[4-(pyrrolidin-1-yl)-7H-pyrrolo[2,3-d]pyrimidin-5-yl]benzonitrile], for which the IC50 is 0.082 µM in assay [1] and 0.015 µM in assay [2].

Take `COc1ccc(F)cc1-c1c[nH]c2ncnc(N3CC[C@H](F)C3)c12` [Example 185, 5-(5-fluoro-2-methoxyphenyl)-4-[(3S)-3-fluoropyrrolidin-1-yl]-7H-pyrrolo[2,3-d]pyrimidine]: the results for the IC50 in assay [1] and in assay [2] were 0.023 µM and 0.015 µM, respectively.

On to `Cc1nc(C2CN(c3ncnc4[nH]cc(-c5cccc(C#N)c5F)c34)CCO2)no1` (stereo not shown) [Example 186, 2-fluoro-3-{4-[2-(5-methyl-1,2,4-oxadiazol-3-yl)morpholin-4-yl]-7H-pyrrolo[2,3-d]pyrimidin-5-yl}benzonitrile], for which the IC50 worked out at 0.09 µM in assay [1] and 0.017 µM in assay [2].

Regarding `Cc1ccnc(-c2c[nH]c3ncnc(N4CCOCC4)c23)c1` [Example 188, 5-(4-methylpyridin-2-yl)-4-(morpholin-4-yl)-7H-pyrrolo[2,3-d]pyrimidine], the figures for the IC50 in assay [1] and in assay [2] were 0.09 µM and 0.043 µM, respectively.

In the case of `COc1cccc(F)c1-c1c[nH]c2ncnc(N(C)C)c12` [Example 189, 5-(2-fluoro-6-methoxyphenyl)-N,N-dimethyl-7H-pyrrolo[2,3-d]pyrimidin-4-amine], the IC50 in assay [1] stood at 0.027 µM; in assay [2], 0.04 µM.

Take `COc1cccc(F)c1-c1c[nH]c2ncnc(N3CCOCC3)c12` [Example 190, 5-(2-fluoro-6-methoxyphenyl)-4-(morpholin-4-yl)-7H-pyrrolo[2,3-d]pyrimidine]: the half-maximal inhibitory concentration (IC50) in assay [1] amounted to 0.034 µM; in assay [2], 0.025 µM.

In the case of `Cc1cc(-c2c[nH]c3ncnc(N4CCOCC4)c23)sn1` [Example 192, 5-(3-methyl-1,2-thiazol-5-yl)-4-(morpholin-4-yl)-7H-pyrrolo[2,3-d]pyrimidine], the half-inhibitory concentration (IC50) is 0.073 µM in assay [1] and 0.023 µM in assay [2].

Consider `COc1ccc(F)c(Cl)c1-c1c[nH]c2ncnc(N3CCOCC3)c12` [Example 193, 5-(2-chloro-3-fluoro-6-methoxyphenyl)-4-(morpholin-4-yl)-7H-pyrrolo[2,3-d]pyrimidin], for which the half-inhibitory concentration (IC50) in assay [1] was determined as 0.051 µM; in assay [2], 0.047 µM.

Regarding `N#Cc1cccc(-c2c(C(F)F)[nH]c3ncnc(N4CCOCC4)c23)c1` [Example 198, 3-[6-(Difluoromethyl)-4-(morpholin-4-yl)-7H-pyrrolo[2,3-d]pyrimidin-5-yl]benzonitrile], the IC50 amounted to 1.08 µM in assay [1] and 0.127 µM in assay [2].

Consider `C1=C(c2c[nH]c3ncnc(N4CCOCC4)c23)COCC1` [Example 199, 5-(5,6-Dihydro-2H-pyran-3-yl)-4-(morpholin-4-yl)-7H-pyrrolo[2,3-d]pyrimidine], for which the IC50 came out at 0.351 µM in assay [1] and 0.0978 µM in assay [2].

In the case of `C1=C(c2c[nH]c3ncnc(N4CCOCC4)c23)CCCO1` [Example 200, 5-(3,4-Dihydro-2H-pyran-5-yl)-4-(morpholin-4-yl)-7H-pyrrolo[2,3-d]pyrimidine], the IC50 in assay [1] worked out at 0.167 µM; in assay [2], 0.0767 µM.

With `c1cc(-c2ncon2)cc(-c2c[nH]c3ncnc(N4CCOCC4)c23)c1` [Example 201, 4-(Morpholin-4-yl)-5-[3-(1,2,4-oxadiazol-3-yl)phenyl]-7H-pyrrolo[2,3-d]pyrimidine], the values for the IC50 in assay [1] and in assay [2] were 0.475 µM and 0.129 µM, respectively.

For `Cc1cc(C2CN(c3ncnc4[nH]cc(-c5cccc(C#N)c5)c34)CCO2)on1` (stereo not shown) [Example 202, 3-{4-[2-(3-Methyl-1,2-oxazol-5-yl)morpholin-4-yl]-7H-pyrrolo[2,3-d]pyrimidin-5-yl}benzonitrile], the IC50 in assay [1] was 0.35 µM; in assay [2], 0.0647 µM.
